Test results taken from patent publication US9869681B2, “Process for treating an individual with an esthetic defect of skin by modulating SASPase FLG2 complex” (L'OREAL, priority 2010, dated 2018).

T1: SASPase-FLG2 interaction (Homo sapiens, UniProt Q53RT3, D212A)
T1 construct: made in house; host or cells: E. coli BL21DE3
T1 sequence (Q53RT3 85-343 D212A): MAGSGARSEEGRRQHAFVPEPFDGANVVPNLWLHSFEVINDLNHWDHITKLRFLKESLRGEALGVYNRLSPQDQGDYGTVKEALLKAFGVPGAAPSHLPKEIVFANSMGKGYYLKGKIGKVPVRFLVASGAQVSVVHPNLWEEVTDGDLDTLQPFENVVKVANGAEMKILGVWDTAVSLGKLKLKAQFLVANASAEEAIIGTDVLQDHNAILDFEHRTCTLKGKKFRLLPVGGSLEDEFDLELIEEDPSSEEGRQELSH

T2: recombinant SASPase (28 kDa) (Homo sapiens, UniProt Q53RT3)
T2 construct: made in house
T2 sequence (Q53RT3 85-343): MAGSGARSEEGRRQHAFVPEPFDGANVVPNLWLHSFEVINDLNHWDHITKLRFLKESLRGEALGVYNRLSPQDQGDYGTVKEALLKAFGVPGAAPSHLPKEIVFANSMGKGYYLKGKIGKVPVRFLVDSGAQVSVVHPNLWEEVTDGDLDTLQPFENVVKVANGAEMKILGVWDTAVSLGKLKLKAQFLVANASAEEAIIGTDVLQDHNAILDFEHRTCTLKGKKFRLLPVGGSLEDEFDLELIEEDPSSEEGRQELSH


Legend:
[1] = target: T1, SASPase-FLG2 interaction; experiment: HTRF (FRET) screening of agents that modulate the SASPase-FLG2 interaction; assay type: binding; settings: SASPase85-343D212A-GST 50 nM, FLG22-213-S-His-THX 200 nM, PBS pH 7.4; read-out: IC50, inhibition of the SASPase-FLG2 interaction
Protocol: The process developed is based on the FLG2-SASPase interaction and uses the homogeneous time-resolved fluorescence (or HTRF) technique.
A recombinant SASPase protein (comprising the amino acid sequence 85-343 of Q53RT3) mutated at its active site (D212A of Q53RT3) and fused with the GST (glutathione S-transferase from Schistosoma japonicum) affinity marker, at its C-terminal end, was prepared in the vector pGEX-4-T3 (GenBank U13855) (SASPase85-343D212A-GST). The D212A mutation was introduced to inactivate the SASPase and to promote a stable interaction with FLG2. […]
Antibodies recognizing, respectively, the affinity markers GST or His-S.Tag, and bearing, respectively, an EuK fluorescence donor group (europium cryptate λex 337 nm/λem 620 nm) or an XL1665 fluorescence receiver group (λex 570-630 nm/λem 665 nm) are used to monitor the peptide-SASPase interaction.
The SASPase-FLG2 interaction was observed by fluorescence energy transfer (FRET) between the fluorescent markers Euk and XL1665. The Euk fluorescence donor was excited at λex 337 nm and the fluorescence emission of the XL1665 fluorescence acceptor was measured at λem 665 nm.
The Euk fluorescence emission at λem 620 nm, taking place independently of the interaction between SASPase and FLG2, was used to normalize the signal. Thus, for each point, a ratio λem 665/λem 620 is determined. […]

[2] = tested on: reconstructed human epidermis Episkin J6; experiment: Stratum corneum thickness by histological observation on slices of Episkin reconstructed epidermis; assay type: cell-based; settings: tested at 10 μM, 1 μM and 0.5 μM; observed at and above the lowest concentration tested
Protocol: (§1) A model of reconstructed human epidermis Episkin J6 (reference 09-EPIS-015) was cultured by immersion in Episkin differentiation medium, 3.5 ml under insert in an oven at 37° C., 5% CO2, the medium being changed every 2 days.
(§2) The compound “M7” was tested at concentrations of 10 μM, 1 μM and 0.5 μM by incubation of the epidermal model with a differentiation culture medium supplied by EpiSkin®, comprising the compound at the test concentration or a buffer solution as control (DMSO at 0.1% final).
(§3) The effect of the compound “M7” on the differentiation and/or proliferation of epidermal cells is evaluated by measuring the thickness of the stratum corneum, and measurement of the expression and/or activation of transglutaminase I (TGI), caspase 14, SASPase, corneodesmosin, desmoglein 1 or protein Ki67.
The thickness of the stratum corneum was estimated by histological observation on slices.

[3] = tested on: reconstructed human epidermis Episkin J6; experiment: Ki67 immunofluorescence on frozen slices of Episkin reconstructed epidermis; assay type: cell-based; settings: Episkin epidermis cultured in the presence of M7 (10 μM, 1 μM, 0.5 μM)
Protocol: as §1, §2, §3
The activation, expression and maturation of Ki67 were determined by immunofluorescence on frozen slices.
The immunofluorescence labeling on frozen slices is performed using a standard protocol, with a PBS buffer; 0.2% BSA for the steps of washing and incubation of the primary and secondary antibodies, and with a PBS buffer; 5% BSA for the step for blocking the nonspecific sites.
For the detection of Ki67, primary antibody: Novocastra mm1 at 1/20 produced in mice; secondary antibody: AlexaFLuor A488-coupled anti-mouse antibody at 1/1000 (Molecular Probes A11017). […]

[4] = tested on: reconstructed human epidermis Episkin J6; experiment: Western blotting of differentiation markers in Episkin reconstructed epidermis; assay type: cell-based; settings: Episkin epidermis cultured in the presence of M7 (10 μM, 1 μM, 0.5 μM)
Protocol: as §1, §2, §3
The activation, expression and maturation of TGI, filaggrin, caspase 14, SASPase, corneodesmosin and desmoglein 1 were determined by western blotting.
For the western blotting, the soluble proteins, TGI, caspase 14, corneodesmosin and SASPase were extracted from two Episkin® nacelles with a manual potter in 1 ml of “native +” buffer (TBS, 1M NaCl, 0.1% Tween 20). The extract is centrifuged at 14 000 rpm, at 4° C. for 10 minutes. The supernatant obtained is filtered through a 0.45 μm Millipore filter (millex) and the proteins are then quantified by the BCA method (Pierce). The protein concentrations are equilibrated to 625 μg/ml final.
The extracts are deposited on a 10-20% Criterion gel (ref.: 345-0044 Bio-Rad) according to the supplier's protocol, and are then transferred onto a PVDF membrane via the semi-dry method.
The western blotting immunochemical detection is performed according to a standard protocol carried out with primary antibodies specific for the target and secondary antibodies coupled to HRP. Revelation is performed with the kits ECL; ECL plus; ECL advanced (Amersham) according to the necessary sensitivity and according to the supplier's protocol. The photon imaging apparatus used is the Fluor S Multilmager (Bio-Rad).
For TGI, primary antibody: Covalab pab 0061 at 1/100 produced in rabbits; secondary antibody: HRP-coupled anti-rabbit antibody at 1/4000: Bio-rad 170-6515
For caspase 14, primary antibody: Santa Cruz sc-5628 at 1/500 produced in rabbits; secondary antibody: HRP-coupled anti-rabbit antibody at 1/400: Bio-rad 170-6515
For corneodesmosin, primary antibody: Abnova 1041-M01 at 1/5000 produced in mice; secondary antibody: HRP-coupled anti-mouse antibody at 1/4000: Bio-rad 170-6516
For SASPase, primary antibody: Covalab 7H9a105 at 1/2000 produced in mice; secondary antibody: HRP-coupled anti-mouse antibody at 1/4000: Bio-rad 170-6516
For the western blotting of filaggrin and desmoglein 1, these proteins are extracted from the pellet obtained during the extraction of the “soluble” proteins. The pellets are ground with an electric potter in 200 μl of whole Laemmli buffer ([…] Tris; 2% SDS; 200 mM DTT; 10% glycerol) and then heated at 90° C. for 10 minutes and finally centrifuged for 10 minutes at 14 000 rpm at room temperature.
The supernatants obtained are assayed for proteins via the Bradford method (cytoskeleton). The total protein concentrations are equilibrated to 1 mg/ml final. A western blotting protocol identical to the previous one is applied.
For desmoglein 1, primary antibody: Progen 61002 at 1/100 produced in mice; secondary antibody: HRP-coupled anti-mouse antibody at 1/4000: Bio-rad 170-6516

[5] = target: T2, recombinant SASPase (28 kDa); experiment: Enzymatic activation of SASPase by FLG2 (hydrolysis of fluorescent substrate Dabcyl-QIDRIMEK-Edans); assay type: biochemical; settings: for enzymatic activity of the SASPase: increasing concentration of FLG2 form (0.01 to 10 times SASPase 0.025 mg/ml), acetate/acetic acid buffer pH 5.5, 37° C.
Protocol: The enzymatic reaction is performed in an acetate/acetic acid buffer. The FIGURE illustrates the mean±sem of an experiment performed in duplicate.
A 28-kDa recombinant SASPase corresponding to the amino acid sequence 85 to 343 of the sequence Q53RT3 (Uniprot/Swissprot ref.) was prepared as described by Bernard et al. (J. Invest. Dermatol., 2005, 125: 278-287) (SASPase85-343).
The SASPase was dissolved in a PBS buffer and used at a final concentration of 0.025 mg/ml in the presence of a final concentration of a colorimetric substrate Dabcyl-QIDRIMEK-Edans of 0.01 mM (Production Jerini Peptide Ref. D17: JPT Peptide Technologies GmbH).
FLG2-Hs and FLG2-AbD are used at concentrations corresponding to 0.01, 0.02, 0.04, 0.08, 0.16, 0.31, 0.63, 1.25, 2.5, 5 or 10 times the final concentration of SASPase, i.e. 0.025 mg/ml.
SASPase and FLG2-Hs, or FLG2-AbD, are incubated at 37° C. in a 0.1 M acetate/acetic acid buffer at pH 5.5 containing 150 mM of NaCl, in the presence of Dabcyl-QIDRIMEK-Edans.
The hydrolysis of the colorimetric substrate by the activated SASPase leads to the separation of the Edans fluorochrome and of its Dabcyl deactivator (or quencher), and to an increase in the fluorescence of Edans.
Measurement of the fluorescent signal is performed at λex 340 nm/[…]. The fluorescence is read every 10 minutes for 1 hour 30 minutes at 37° C., with a Spectramax M5e (Molecular Devices).

IC50 [1] [nM]	FLG2 concentration at and above which activation of SASPase proteolytic activity is obtained ([5]; SASPase 0.025 mg/ml)	Molecule	thickness of the stratum corneum [2]	activation and expression of the protein Ki67 [3]	expression and activation of SASPase [4]	expression and activation of TGI (transglutaminase I) [4]	expression and activation of caspase 14 [4]	expression and activation of corneodesmosin [4]	expression and activation of desmoglein [4]	enzymatic activity of the SASPase [5]
~2000	–	Cc1ccc(C(=O)Oc2cccc(C3C4=C(Nc5c3c(=O)n(C)c(=O)n5C)c3ccccc3C4=O)c2)cc1 (centres unmarked) [M7]	thickening	decrease	increase	increase	increase	increase	increase	–
–	–	FLG2-AbD: recombinant filaggrin-2, amino acids 81-212 of Q5D862, fused N-terminally to thioredoxin-His-S.Tag; inactive form (protein, UniProt Q5D862 81-212, looked up, fragment, N-terminal thioredoxin-His-S.Tag fusion) LTMACNKVLSKEYCKASGSKKHRRGHRHQEEESETEEDEEDTPGHKSGYRHSSWSEGEEHGYSSGHSRGTVKCRHGSNSRRLGRQGNLSSSGNQEGSQKRYHRSSCGHSWSGGKDRHGSSSVELRERINKSH	–	–	–	–	–	–	–	virtually unchanged
–	equivalent to that of the SASPase	FLG2-Hs: recombinant filaggrin-2, amino acids 2-213 of Q5D862, fused N-terminally to thioredoxin-His-S.Tag; active form (protein, UniProt Q5D862 2-213, looked up, fragment, N-terminal thioredoxin-His-S.Tag fusion) TDLLRSVVTVIDVFYKYTKQDGECGTLSKGELKELLEKELHPVLKNPDDPDTVDVIMHMLDRDHDRRLDFTEFLLMIFKLTMACNKVLSKEYCKASGSKKHRRGHRHQEEESETEEDEEDTPGHKSGYRHSSWSEGEEHGYSSGHSRGTVKCRHGSNSRRLGRQGNLSSSGNQEGSQKRYHRSSCGHSWSGGKDRHGSSSVELRERINKSHI	–	–	–	–	–	–	–	significantly increased
